Experiments:
Type in all cases: cell-based
[1] = system: reconstructed Sensitive Skin model (reconstructed human epidermises treated with 0.6% lactic acid); test: Determinations of released inflammatory mediators (ELISA) in reconstructed Sensitive Skin model, Example 3
Method: (§1) Reconstructed human epidermises were obtained from the keratinocytes of a […] donor using the method derived from Poumay et al. (Arch Dermatol Res 2004; 296:203-11). After 2 days of immersion culture, the reconstructed human epidermises were cultured at the air/liquid interface for 10 days.
(§2) Epidermises at differentiation day 10 was treated or not (control) systemically with the test compounds and incubated for 24 hours.
(§3) The amount of inflammatory mediators IL-1alpha (IL1α), IL-8 and PGE2 present in skin culture supernatants was evaluated using ELISA kits (R&D Systems). • Evaluations of intracellular inflammatory markers IL-1α, IL8 and IL1-RA (n=2)

[2] = system: reconstructed Sensitive Skin model (reconstructed human epidermises treated with 0.6% lactic acid); test: Intracellular measurements of inflammatory mediators (ELISA) in reconstructed Sensitive Skin model, Example 3
Method: (§4) Intracellular amounts of IL-1α, IL8 and IL1-RA were determined by ELISA (R&D Systems) in ground epidermis (n=2).
as §1, §2, §3
(§5) Same protocol as described in Example 2. • Determination of Poly-Unsaturated Fatty Acids (PUFAs) (n=2)

[3] = system: reconstructed human epidermises; test: Immunolabeling of involucrin in reconstructed epidermis; settings: Lactic acid 0.6%; fluorescence intensity vs. control
Method: Reconstructed human epidermises were obtained from the keratinocytes of a donor using the method derived from Poumay et al. (Arch Dermatol Res 2004; 296:203-11). After 2 days of immersion culture, the reconstructed human epidermises were cultured at the air/liquid interface for 10 days. […] On the other hand, involucrin was stained by immunofluorescence (Alexa-488; green dye), the nuclei were stained by propidium iodide (red dye). The involucrin staining was quantified by measuring the fluorescence intensity reported on the surface of the living layers of the epidermis.

[4] = system: reconstructed Sensitive Skin model (reconstructed human epidermises treated with 0.6% lactic acid); test: Determination of PUFAs (GC/MS) in reconstructed Sensitive Skin model, Example 3
Method: (§6) Screening of polyunsaturated fatty acids (PUFAs) expressed by the epidermis was carried out by GC/MS analysis of samples obtained after grinding the epidermises (n=2).
(§7) The amounts were normalized by C16:0 (palmitic acid), which is representative of the overall lipid content of the epidermis.
as §1, §2, §5
Same protocol as described in Example 2.

[5] = system: reconstructed human epidermises; test: Determination of polyunsaturated fatty acids (PUFAs) in reconstructed epidermises (GC/MS), Example 2; settings: Lactic acid 0.6%
Method: (§8) Reconstructed human epidermises were obtained from the keratinocytes of a donor using the method derived from Poumay et al. (Arch Dermatol Res 2004; 296:203-11). After 2 days of immersion culture, the reconstructed human epidermises were cultured at the air/liquid interface for 10 days.
as §6, §7

[6] = system: reconstructed human epidermises; test: Intracellular determinations of inflammatory markers (ELISA), Example 2; settings: Lactic acid 0.6%
Method: as §8, §4

[7] = system: reconstructed human epidermises; test: Viability of reconstructed epidermises (MTT); settings: Lactic acid 0.6% topical, 48 h; control 100%; donor
Method: as §8
The viability of the epidermises was assessed by an MTT metabolism test (n=2). The optical density (OD) at 540 nm is proportional to the amount of living cells and their metabolic activity.

[8] = system: reconstructed human epidermises; test: Determinations of released inflammatory markers, Example 2; settings: Lactic acid 0.6%
Method: Reconstructed human epidermises were obtained from the keratinocytes of a donor using the method derived from Poumay et al. (Arch Dermatol Res 2004; 296:203-11). After 2 days of immersion culture, the reconstructed human epidermises were cultured at the air/liquid interface for 10 days. […] The amount of inflammatory markers present in culture supernatants was assessed (n=6) using CBA kits (BD Biosciences) for IL-1 alpha (IL1α) and IL-8; and ELISA kits for VEGF (R&D Systems) and PGE2 (Enzo).

[9] = system: reconstructed human epidermises; test: Gene expression in reconstructed epidermises (qRT-PCR); settings: Lactic acid 0.6%; control = 100
Method: Reconstructed human epidermises were obtained from the keratinocytes of a donor using the method derived from Poumay et al. (Arch Dermatol Res 2004; 296:203-11). After 2 days of immersion culture, the reconstructed human epidermises were cultured at the air/liquid interface for 10 days. […] Gene expression of inflammatory markers and of markers of innate immunity and defense was evaluated by real-time quantitative PCR (qRT-PCR) on messenger RNAs extracted from epidermis (n=2). Gene expression of the innate immunity and defense markers, beta-defensin 2 hBD2, or Toll-like receptor 2, was also evaluated in the same way. The gene expression analysis was performed in duplicate using a PCR array. The quantitative analysis of gene expression was based on the analysis of threshold cycles; relative expression (RE) was expressed in arbitrary units according to the following formula: RE=(½ number of cycles)×10^6

[10] = Lactic acid 0.6%, change vs. control

CC(O)C(=O)O (stereo not shown) [Lactic acid, lactic acid]
Released IL1-alpha Mean ± Standard deviation ([1]; Lactic acid 0.6% topical, 48 h): 68 ± 34 pg/mL
Released IL8 Mean ± Standard deviation ([1]; Lactic acid 0.6% topical, 48 h): 209 ± 40 pg/mL
Released PGE2 Mean ± Standard deviation ([1]; Lactic acid 0.6% topical, 48 h): 197 ± 79 pg/mL
Released IL1-alpha Change [1, 10]: +511%
Released IL8 Change [1, 10]: +169%
Released PGE2 Change [1, 10]: +584%
Intracellular IL1-alpha Mean ± SD ([2]; Lactic acid 0.6% topical, 48 h): 1044 ± 123.0 pg/mg protein
Intracellular IL1RA Mean ± SD ([2]; Lactic acid 0.6% topical, 48 h): 25750 ± 1974 pg/mg protein
Intracellular IL8 Mean ± SD ([2]; Lactic acid 0.6% topical, 48 h): 79.20 ± 7.715 pg/mg protein
Intracellular IL1-alpha Change [2, 10]: +277%
Intracellular IL1RA Change [2, 10]: +394%
Intracellular IL8 Change [2, 10]: +113%
Decrease in the expression level of involucrin [3]: −22%
C18:1 Mean ± SD, amount normalized to C16:0 ([4]; Lactic acid 0.6% topical, 48 h): 0.3880
C18:2 LA Mean ± SD, amount normalized to C16:0 ([4]; Lactic acid 0.6% topical, 48 h): 0.2130
C20:4 AA Mean ± SD, amount normalized to C16:0 ([4]; Lactic acid 0.6% topical, 48 h): 0.0575
C18:1 Change [4, 10]: +110%
C18:2 LA Change [4, 10]: +134%
C20:4 AA Change [4, 10]: +113%
C18:1 Change vs. control [5]: +20%
C18:1 amount normalized to C16:0 [5]: 0.226
C18:2 LA Change vs. control [5]: +19%
C18:2 LA amount normalized to C16:0 [5]: 0.216
C20:4 AA Change vs. control [5]: +42%
C20:4 AA amount normalized to C16:0 [5]: 0.050
Intracellular IL1-RA Change vs. control [6]: +1242%
Intracellular IL1-alpha Change vs. control [6]: +806%
Intracellular IL8 Change vs. control [6]: +390%
Intracellular IL1-RA ([6]; 48 h): 31243 pg/mg protein
Intracellular IL1-alpha ([6]; 48 h): 794 pg/mg protein
Intracellular IL8 ([6]; 48 h): 52.1 pg/mg protein
Viability [7]: 66%
Released IL1-alpha Change vs. control [8]: +221%
Released IL8 Change vs. control [8]: +84%
Released PGE2 Change vs. control [8]: +207%
Released VEGF Change vs. control [8]: +156%
Released IL1-alpha ([8]; 48 h, culture supernatant): 23 ± 7 pg/mL
Released IL8 ([8]; 48 h, culture supernatant): 120 ± 18 pg/mL
Released PGE2 ([8]; 48 h, culture supernatant): 149 ± 36 pg/mL
Released VEGF ([8]; 48 h, culture supernatant): 1109 ± 45 pg/mL
ADCYAP1 gene expression [9]: 117
DEFB4A gene expression [9]: 6
IL1A gene expression [9]: 240
IL1B gene expression [9]: 195
IL1RN gene expression [9]: 144
IL8 gene expression [9]: 649
PLA2G2F2F gene expression [9]: 129
PTGS2 gene expression [9]: 182
THBS1 gene expression [9]: 181
TLR2 gene expression [9]: 54
TNF gene expression [9]: 105
VEGF-A gene expression [9]: 138
